One molecule from ChEMBL document CHEMBL5647697, “Akt inhibition synergizes with polycomb repressive complex 2 inhibition in the treatment of multiple myeloma” (2019) can be followed below.

Structures are written as SMILES.

Format in all cases: functional
The test system of assay [1] is MM1.S. The experiment in a line: Induction of apoptosis in human MM1.S cells assessed as late apoptotic cells at 5 micromol/L incubated for 48 hrs by annexin V/PI staining based flow cytometry (reference value: 3.6%). The settings on record: dose 5 µmol/L, at 5 µM. In general terms: Flow cytometry measures light scatter and fluorescence of single cells or particles in a stream.

Assay [2] concerns MM1.S. The experiment in a line: Induction of apoptosis in human MM1.S cells assessed as viable cells at 5 micromol/L incubated for 48 hrs by annexin V/PI staining based flow cytometry (reference value: 88.2%). The settings on record: dose 5 µmol/L, read-out: Activity.
Assay [3] deals with MM1.S. The experiment in a line: Induction of apoptosis in human MM1.S cells assessed as early apoptotic cells at 5 micromol/L incubated for 48 hrs by annexin V/PI staining based flow cytometry (reference value: 8.03%). As to conditions: dose 5 µmol/L, at 5 µM.
Assay [4] deals with MM1.S. The experiment in a line: Induction of apoptosis in human MM1.S cells assessed as necrotic cells at 5 micromol/L incubated for 48 hrs by annexin V/PI staining based flow cytometry (reference value: 0.17%). The settings on record: dose 5 µmol/L, at 5 µM.

`CCCc1cc(C)[nH]c(=O)c1CNC(=O)c1cc(-c2ccc(N3CCN(C(C)C)CC3)nc2)cc2c1cnn2C(C)C`: the results for the Activity in assay [1], in assay [3] and in assay [4] were 15.9%, 18.8% and 0.41%, respectively. The viability at 5 µM in assay [2] worked out at 64.9%.
